The values below come from ChEMBL document CHEMBL1124630, “Fluoronaphthyridines and quinolones as antibacterial agents. 1. Synthesis and structure-activity relationships of new 1-substituted derivatives” (J Med Chem, 1989).

Values after ≈ are worked out from the molar mass of the structure shown.

In series [1] the test system is Pseudomonas aeruginosa. The series can be described thus: In vitro antibacterial activity against Pseudomonas aeruginosa (A 9843). Type of series: functional.
Series [2] deals with Staphylococcus aureus. Description: In vitro antibacterial activity against Staphylococcus aureus Smith (A9537). Type of series: functional.
A further series relates to Morganella morganii. The series can be described thus: In vitro antibacterial activity against Morganella morganii (A 15153). Format: functional.
For series [3], the system named is Klebsiella pneumoniae. The series can be described thus: In vitro antibacterial activity against Klebsiella pneumoniae (A 9664). Format: functional.
Another series relates to Enterobacter cloacae. Description: In vitro antibacterial activity against Enterobacter cloacae (A 9656). Type of series: functional.
Series [4] concerns Escherichia coli. The series can be described thus: In vitro antibacterial activity against Escherichia coli (A 15119). Format: functional.
The subject of series [5] is Staphylococcus aureus. Description: In vivo efficacy in systemic infection due to Staphylococcus aureus Smith (A 9537) in mice. Format: functional. The settings on record: read-out: PD50.
Series [6] concerns Escherichia coli. The series can be described thus: In vivo efficacy in systemic infection due to Escherichia coli (A 15119) in mice. Type of series: functional. As to conditions: read-out: PD50.
Series [7] deals with Pseudomonas aeruginosa. Description: In vivo efficacy in systemic infection due to Pseudomonas aeruginosa (A 9843) in mice. Type of series: functional. As to conditions: read-out: PD50.
Series [8] relates to Klebsiella pneumoniae. Description: In vivo efficacy in systemic infection due to Klebsiella pneumoniae (A 9664) in mice. Format: functional. The settings on record: read-out: PD50.
The nature of series [9]: Maximum concentration in plasma after oral administration in dog (25 mg/kg). Format: ADME, organism-based, Canis lupus familiaris. The arrangement: dose 25 mg/kg, route oral.
A short description of series [10]: Urinary recovery after 24 hr in plasma after oral administration in dog (25 mg/kg). Type of series: ADME, organism-based, Canis lupus familiaris. The settings on record: urine, read-out: UR.
The next series has as its system Canis familiaris. The series can be described thus: Area under the concentration/ time in plasma after oral administration in dog (25 mg/kg). Type of series: ADME, organism-based, Canis lupus familiaris. The settings on record: in vivo.
A short description of series [11]: Lethal dose of compound in OF1-strain female swiss mice after oral administration. Type of series: toxicity, organism-based. As to conditions: mouse, in vivo.
Where [12] appears, read: Pseudomonas aeruginosa, read-out: MIC.
Where [13] appears, read: Staphylococcus aureus, read-out: MIC.
Where [14] appears, read: Morganella morganii, read-out: MIC.
The mark [15] stands for this setting: Klebsiella pneumoniae, read-out: MIC.
Setting [16] is: Enterobacter cloacae, read-out: MIC.
Where [17] appears, read: Escherichia coli, read-out: MIC.

For orientation: MIC means the least concentration at which growth counts as inhibited. A word on the Cmax: it is the peak of the concentration-time curve. As a reminder, the LD50 is the dose expected to kill half of the subjects tested.

As to `O=C(O)c1cn(C2(c3ccccc3)CC2)c2cc(N3CCNCC3)c(F)cc2c1=O`, the MIC with Pseudomonas aeruginosa [1] (setting [12]) amounted to 4 µg/mL (≈ 9.82 µM); with Staphylococcus aureus [2] (setting [13]) it was 0.13 µg/mL (≈ 0.319 µM); in the series on Morganella morganii (setting [14]) it was 0.25 µg/mL (≈ 0.614 µM); in the series on Klebsiella pneumoniae [3] (setting [15]) it was 0.25 µg/mL (≈ 0.614 µM); in the series with Enterobacter cloacae (setting [16]), 0.25 µg/mL (≈ 0.614 µM); in the series on Escherichia coli [4] (setting [17]) it was 0.13 µg/mL (≈ 0.319 µM).

For the compound `CC(C)(C)n1cc(C(=O)O)c(=O)c2cc(F)c(N3CCNCC3)c(F)c21`, the MIC worked out at 4 µg/mL (≈ 10.9 µM) in the series on Pseudomonas aeruginosa [1] (setting [12]); 0.25 µg/mL (≈ 0.684 µM) with Staphylococcus aureus [2] (setting [13]); 0.5 µg/mL (≈ 1.37 µM) with Morganella morganii (setting [14]); 0.25 µg/mL (≈ 0.684 µM) in the series with Klebsiella pneumoniae [3] (setting [15]); 0.25 µg/mL (≈ 0.684 µM) with Enterobacter cloacae (setting [16]); 0.06 µg/mL (≈ 0.164 µM) in the series on Escherichia coli [4] (setting [17]).

Regarding `CC(c1ccccc1)n1cc(C(=O)O)c(=O)c2cc(F)c(N3CCNCC3)cc21` (centres undefined), the MIC is 32 µg/mL (≈ 80.9 µM) in the series with Pseudomonas aeruginosa [1] (setting [12]); 4 µg/mL (≈ 10.1 µM) in the series with Staphylococcus aureus [2] (setting [13]); 16 µg/mL (≈ 40.5 µM) with Morganella morganii (setting [14]); 4 µg/mL (≈ 10.1 µM) with Klebsiella pneumoniae [3] (setting [15]); 4 µg/mL (≈ 10.1 µM) in the series with Enterobacter cloacae (setting [16]); 2 µg/mL (≈ 5.06 µM) in the series on Escherichia coli [4] (setting [17]).

As to `O=C(O)c1cn(C23CC4CC(CC(C4)C2)C3)c2cc(N3CCNCC3)c(F)cc2c1=O`, the minimal inhibitory concentration (MIC) in the series on Pseudomonas aeruginosa [1] (setting [12]) is 63 µg/mL (≈ 148 µM); in the series on Staphylococcus aureus [2] (setting [13]) it was 8 µg/mL (≈ 18.8 µM); with Morganella morganii (setting [14]), 32 µg/mL (≈ 75.2 µM); in the series with Klebsiella pneumoniae [3] (setting [15]), 8 µg/mL (≈ 18.8 µM); in the series with Enterobacter cloacae (setting [16]), 4 µg/mL (≈ 9.4 µM); with Escherichia coli [4] (setting [17]), 2 µg/mL (≈ 4.7 µM).

In the case of `O=C(O)c1cn(CC2CC2)c2cc(N3CCNCC3)c(F)cc2c1=O`, the MIC in the series on Pseudomonas aeruginosa [1] (setting [12]) stood at 4 µg/mL (≈ 11.6 µM); with Staphylococcus aureus [2] (setting [13]), 1 µg/mL (≈ 2.9 µM); in the series with Morganella morganii (setting [14]), 1 µg/mL (≈ 2.9 µM); in the series with Klebsiella pneumoniae [3] (setting [15]), 2 µg/mL (≈ 5.79 µM); in the series on Enterobacter cloacae (setting [16]), 4 µg/mL (≈ 11.6 µM); in the series with Escherichia coli [4] (setting [17]) it was 0.5 µg/mL (≈ 1.45 µM).

Consider `CC(C)n1cc(C(=O)O)c(=O)c2cc(F)c(N3CCNCC3)nc21`, for which the MIC is 4 µg/mL (≈ 12 µM) in the series on Pseudomonas aeruginosa [1] (setting [12]); 2 µg/mL (≈ 5.98 µM) in the series with Staphylococcus aureus [2] (setting [13]); 1 µg/mL (≈ 2.99 µM) in the series on Morganella morganii (setting [14]); 1 µg/mL (≈ 2.99 µM) in the series on Klebsiella pneumoniae [3] (setting [15]); 0.5 µg/mL (≈ 1.5 µM) in the series on Enterobacter cloacae (setting [16]); 0.25 µg/mL (≈ 0.748 µM) with Escherichia coli [4] (setting [17]).

With `O=C(O)c1cn(C2CC2)c2nc(N3CCNCC3)c(F)cc2c1=O`, the MIC in the series with Pseudomonas aeruginosa [1] (setting [12]) is 0.06 µg/mL (≈ 0.181 µM); in the series with Staphylococcus aureus [2] (setting [13]), 0.25 µg/mL (≈ 0.752 µM); with Morganella morganii (setting [14]), 0.06 µg/mL (≈ 0.181 µM); in the series on Klebsiella pneumoniae [3] (setting [15]) it was 0.06 µg/mL (≈ 0.181 µM); with Enterobacter cloacae (setting [16]), 0.06 µg/mL (≈ 0.181 µM); in the series on Escherichia coli [4] (setting [17]), 0.06 µg/mL (≈ 0.181 µM). Moreover, the ED50 with Staphylococcus aureus [5] is 6.7 mg/kg; with Escherichia coli [6], 0.5 mg/kg; in the series on Pseudomonas aeruginosa [7] it was 3.6 mg/kg; in the series on Klebsiella pneumoniae [8], 2.2 mg/kg.

As for `O=C(O)c1cn(-c2ccc(F)cc2)c2nc(N3CCNCC3)c(F)cc2c1=O`, the MIC with Pseudomonas aeruginosa [1] (setting [12]) is 0.39 µg/mL (≈ 1.01 µM); in the series with Staphylococcus aureus [2] (setting [13]) it was 0.39 µg/mL (≈ 1.01 µM); in the series on Klebsiella pneumoniae [3] (setting [15]), 0.1 µg/mL (≈ 0.259 µM); in the series with Escherichia coli [4] (setting [17]) it was 0.05 µg/mL (≈ 0.129 µM).

As to `CC1CC1n1cc(C(=O)O)c(=O)c2cc(F)c(N3CCNCC3)cc21` (stereo in doubt; 12), the MIC with Pseudomonas aeruginosa [1] amounted to 2 µg/mL (≈ 5.79 µM); against Staphylococcus aureus [2] it was 1 µg/mL (≈ 2.9 µM); in the series with Morganella morganii, 1 µg/mL (≈ 2.9 µM); against Klebsiella pneumoniae [3], 2 µg/mL (≈ 5.79 µM); in the series with Enterobacter cloacae, 0.13 µg/mL (≈ 0.376 µM); in the series on Escherichia coli [4], 0.06 µg/mL (≈ 0.174 µM).

For the compound `CC1CC1n1cc(C(=O)O)c(=O)c2cc(F)c(N3CCNCC3)cc21` (stereo in doubt; 13), the MIC was found to be 1 µg/mL (≈ 2.9 µM) in the series on Pseudomonas aeruginosa [1] (setting [12]); 0.13 µg/mL (≈ 0.376 µM) in the series on Staphylococcus aureus [2]; 0.25 µg/mL (≈ 0.724 µM) with Morganella morganii; 1 µg/mL (≈ 2.9 µM) in the series with Klebsiella pneumoniae [3] (setting [15]); 0.5 µg/mL (≈ 1.45 µM) in the series on Enterobacter cloacae; 0.13 µg/mL (≈ 0.376 µM) with Escherichia coli [4].

Turning to `O=C(O)c1cn(C2CC2)c2cc(N3CCNCC3)c(F)cc2c1=O` [CIPROFLOXACIN], the MIC with Pseudomonas aeruginosa [1] (setting [12]) came out at 0.13 µg/mL (≈ 0.392 µM); with Staphylococcus aureus [2] (setting [13]) it was 0.13 µg/mL (≈ 0.392 µM); in the series with Morganella morganii (setting [14]) it was 0.015 µg/mL (≈ 0.0453 µM); in the series with Klebsiella pneumoniae [3] (setting [15]), 0.03 µg/mL (≈ 0.0905 µM). Also, the ED50 with Staphylococcus aureus [5] was 4 mg/kg; in the series on Escherichia coli [6], 0.7 mg/kg; in the series on Pseudomonas aeruginosa [7] it was 5 mg/kg; in the series with Klebsiella pneumoniae [8], 1.5 mg/kg. The compound further had a Cmax in [9] of 3000 ng/mL. Moreover, in series [10], the dose excreted at 24 h came out at 17%. Moreover, the AUC with Canis familiaris worked out at 20 µg/mL.

On to `CCn1cc(C(=O)O)c(=O)c2cc(F)c(N3CCNCC3)nc21` [ENOXACIN], for which the MIC in the series with Pseudomonas aeruginosa [1] (setting [12]) is 0.5 µg/mL (≈ 1.56 µM); in the series on Staphylococcus aureus [2] (setting [13]), 0.25 µg/mL (≈ 0.78 µM); with Morganella morganii (setting [14]), 0.13 µg/mL (≈ 0.406 µM); with Klebsiella pneumoniae [3] (setting [15]), 0.5 µg/mL (≈ 1.56 µM); in the series with Enterobacter cloacae (setting [16]), 0.5 µg/mL (≈ 1.56 µM); in the series with Escherichia coli [4] (setting [17]), 0.13 µg/mL (≈ 0.406 µM).

As for `CCn1cc(C(=O)O)c(=O)c2cc(F)c(N3CCNCC3)cc21` [NORFLOXACIN], the MIC in the series on Pseudomonas aeruginosa [1] (setting [12]) was found to be 0.5 µg/mL (≈ 1.57 µM); in the series with Staphylococcus aureus [2] (setting [13]) it was 0.25 µg/mL (≈ 0.783 µM); with Morganella morganii (setting [14]) it was 0.015 µg/mL (≈ 0.047 µM); in the series with Klebsiella pneumoniae [3] (setting [15]), 0.03 µg/mL (≈ 0.0939 µM); in the series with Enterobacter cloacae (setting [16]), 0.06 µg/mL (≈ 0.188 µM); in the series with Escherichia coli [4] (setting [17]), 0.13 µg/mL (≈ 0.407 µM). In addition, the ED50 is 10 mg/kg with Staphylococcus aureus [5], 3 mg/kg in the series on Escherichia coli [6], 16 mg/kg with Pseudomonas aeruginosa [7] and 8 mg/kg in the series with Klebsiella pneumoniae [8]. For the same compound, the LD50 in [11] was over 2500 mg/kg.

With `O=C(O)c1cn(-c2ccc(F)cc2)c2cc(N3CCNCC3)c(F)cc2c1=O` [SARAFLOXACIN], the MIC came to 0.39 µg/mL (≈ 1.01 µM) in the series on Pseudomonas aeruginosa [1] (setting [12]), 0.2 µg/mL (≈ 0.519 µM) with Staphylococcus aureus [2] (setting [13]), 0.02 µg/mL (≈ 0.0519 µM) with Klebsiella pneumoniae [3] (setting [15]) and 0.05 µg/mL (≈ 0.13 µM) with Escherichia coli [4] (setting [17]).
